ChEMBL document CHEMBL4507326, “Data for DCP probe TP-030-2” (2021)

Columns and labels:
[1] = biological target: Estrogen receptor (Homo sapiens) (UniProt P03372); conditions: Compound concentration 10.0 uM
[2] = biological target: Cell division cycle 7-related protein kinase (Homo sapiens, UniProt O00311); experiment: CDC7(CDC7CGP1) Takeda global kinase panel
[3] = biological target: Peripheral plasma membrane protein CASK (Homo sapiens, UniProt O14936); experiment: CASK(CASKLGY1) Takeda global kinase panel
[4] = biological target: Serine/threonine-protein kinase N2 (Homo sapiens, UniProt Q16513); experiment: PKN2 [PRK2(PKN2LGG5)] Takeda global kinase panel
Chain of Serine/threonine-protein kinase N2 (Q16513 whole entry): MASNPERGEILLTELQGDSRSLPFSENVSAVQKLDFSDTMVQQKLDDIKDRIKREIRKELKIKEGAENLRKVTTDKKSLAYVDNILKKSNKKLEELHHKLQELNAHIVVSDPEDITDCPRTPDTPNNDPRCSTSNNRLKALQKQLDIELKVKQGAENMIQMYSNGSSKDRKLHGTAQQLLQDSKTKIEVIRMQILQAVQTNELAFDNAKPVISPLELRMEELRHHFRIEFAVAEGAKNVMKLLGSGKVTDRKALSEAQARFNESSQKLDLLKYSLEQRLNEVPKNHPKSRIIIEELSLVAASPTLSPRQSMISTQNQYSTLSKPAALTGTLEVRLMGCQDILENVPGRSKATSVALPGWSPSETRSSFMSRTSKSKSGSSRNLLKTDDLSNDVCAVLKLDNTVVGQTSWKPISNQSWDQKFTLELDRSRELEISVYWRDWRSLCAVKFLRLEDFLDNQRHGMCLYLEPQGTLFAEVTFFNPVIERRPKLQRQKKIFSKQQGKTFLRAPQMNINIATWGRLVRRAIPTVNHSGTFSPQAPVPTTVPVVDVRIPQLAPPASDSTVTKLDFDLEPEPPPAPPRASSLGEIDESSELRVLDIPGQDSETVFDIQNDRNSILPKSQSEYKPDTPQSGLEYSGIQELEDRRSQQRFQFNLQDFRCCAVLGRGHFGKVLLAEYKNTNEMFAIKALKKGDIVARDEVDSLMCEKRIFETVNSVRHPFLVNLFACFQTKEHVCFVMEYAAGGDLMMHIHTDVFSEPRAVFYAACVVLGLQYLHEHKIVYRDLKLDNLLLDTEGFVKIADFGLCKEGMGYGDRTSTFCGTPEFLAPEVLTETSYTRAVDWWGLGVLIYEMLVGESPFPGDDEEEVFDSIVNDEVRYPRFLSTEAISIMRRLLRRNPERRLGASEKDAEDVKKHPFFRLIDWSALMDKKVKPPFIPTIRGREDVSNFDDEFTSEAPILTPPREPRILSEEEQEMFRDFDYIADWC

[5] = biological target: Tyrosine-protein kinase Fer (Homo sapiens, UniProt P16591); experiment: Fer(FER1LGY1) Takeda global kinase panel
[6] = biological target: Histamine H1 receptor (Homo sapiens) (UniProt P35367); conditions: Compound concentration 10.0 uM
Chain of Histamine H1 receptor (Homo sapiens) (P35367 whole entry): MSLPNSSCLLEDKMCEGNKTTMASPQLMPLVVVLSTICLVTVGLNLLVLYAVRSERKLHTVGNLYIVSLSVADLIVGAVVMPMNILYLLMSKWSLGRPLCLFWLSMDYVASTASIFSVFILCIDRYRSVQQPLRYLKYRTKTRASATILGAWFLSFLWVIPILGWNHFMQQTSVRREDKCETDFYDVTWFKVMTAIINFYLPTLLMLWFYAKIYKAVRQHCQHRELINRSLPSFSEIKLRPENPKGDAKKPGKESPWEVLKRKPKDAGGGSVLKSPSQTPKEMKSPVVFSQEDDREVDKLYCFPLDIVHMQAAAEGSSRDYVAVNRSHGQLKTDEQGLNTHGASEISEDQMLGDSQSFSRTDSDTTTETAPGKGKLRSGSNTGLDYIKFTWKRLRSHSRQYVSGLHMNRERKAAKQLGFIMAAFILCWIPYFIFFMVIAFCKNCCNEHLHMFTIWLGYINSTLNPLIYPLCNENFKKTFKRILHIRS

[7] = biological target: Beta-2 adrenergic receptor (Homo sapiens) (UniProt P07550); conditions: Compound concentration 10.0 uM
Aurora kinase A = Aurora kinase A (Homo sapiens, UniProt O14965); experiment: AurA [Aur2(AURALGF1)] Takeda global kinase panel
TGF-beta receptor type-1 = TGF-beta receptor type-1 (Homo sapiens, UniProt P36897); experiment: TGFbetaR1(TGF1LGF1) Takeda global kinase panel
[8] = biological target: Dual specificity mitogen-activated protein kinase kinase 6 (Homo sapiens, UniProt P52564); experiment: MKK6 [MAP2K6(M2K6LGF1)] Takeda global kinase panel
[9] = biological target: Interferon-induced, double-stranded RNA-activated protein kinase (Homo sapiens, UniProt P19525); experiment: PKR(EIK2LGY1) Takeda global kinase panel
[10] = biological target: ALK tyrosine kinase receptor (Homo sapiens, UniProt Q9UM73); experiment: ALK(ALK1LGY1) Takeda global kinase panel
Chain of ALK tyrosine kinase receptor (Q9UM73 whole entry): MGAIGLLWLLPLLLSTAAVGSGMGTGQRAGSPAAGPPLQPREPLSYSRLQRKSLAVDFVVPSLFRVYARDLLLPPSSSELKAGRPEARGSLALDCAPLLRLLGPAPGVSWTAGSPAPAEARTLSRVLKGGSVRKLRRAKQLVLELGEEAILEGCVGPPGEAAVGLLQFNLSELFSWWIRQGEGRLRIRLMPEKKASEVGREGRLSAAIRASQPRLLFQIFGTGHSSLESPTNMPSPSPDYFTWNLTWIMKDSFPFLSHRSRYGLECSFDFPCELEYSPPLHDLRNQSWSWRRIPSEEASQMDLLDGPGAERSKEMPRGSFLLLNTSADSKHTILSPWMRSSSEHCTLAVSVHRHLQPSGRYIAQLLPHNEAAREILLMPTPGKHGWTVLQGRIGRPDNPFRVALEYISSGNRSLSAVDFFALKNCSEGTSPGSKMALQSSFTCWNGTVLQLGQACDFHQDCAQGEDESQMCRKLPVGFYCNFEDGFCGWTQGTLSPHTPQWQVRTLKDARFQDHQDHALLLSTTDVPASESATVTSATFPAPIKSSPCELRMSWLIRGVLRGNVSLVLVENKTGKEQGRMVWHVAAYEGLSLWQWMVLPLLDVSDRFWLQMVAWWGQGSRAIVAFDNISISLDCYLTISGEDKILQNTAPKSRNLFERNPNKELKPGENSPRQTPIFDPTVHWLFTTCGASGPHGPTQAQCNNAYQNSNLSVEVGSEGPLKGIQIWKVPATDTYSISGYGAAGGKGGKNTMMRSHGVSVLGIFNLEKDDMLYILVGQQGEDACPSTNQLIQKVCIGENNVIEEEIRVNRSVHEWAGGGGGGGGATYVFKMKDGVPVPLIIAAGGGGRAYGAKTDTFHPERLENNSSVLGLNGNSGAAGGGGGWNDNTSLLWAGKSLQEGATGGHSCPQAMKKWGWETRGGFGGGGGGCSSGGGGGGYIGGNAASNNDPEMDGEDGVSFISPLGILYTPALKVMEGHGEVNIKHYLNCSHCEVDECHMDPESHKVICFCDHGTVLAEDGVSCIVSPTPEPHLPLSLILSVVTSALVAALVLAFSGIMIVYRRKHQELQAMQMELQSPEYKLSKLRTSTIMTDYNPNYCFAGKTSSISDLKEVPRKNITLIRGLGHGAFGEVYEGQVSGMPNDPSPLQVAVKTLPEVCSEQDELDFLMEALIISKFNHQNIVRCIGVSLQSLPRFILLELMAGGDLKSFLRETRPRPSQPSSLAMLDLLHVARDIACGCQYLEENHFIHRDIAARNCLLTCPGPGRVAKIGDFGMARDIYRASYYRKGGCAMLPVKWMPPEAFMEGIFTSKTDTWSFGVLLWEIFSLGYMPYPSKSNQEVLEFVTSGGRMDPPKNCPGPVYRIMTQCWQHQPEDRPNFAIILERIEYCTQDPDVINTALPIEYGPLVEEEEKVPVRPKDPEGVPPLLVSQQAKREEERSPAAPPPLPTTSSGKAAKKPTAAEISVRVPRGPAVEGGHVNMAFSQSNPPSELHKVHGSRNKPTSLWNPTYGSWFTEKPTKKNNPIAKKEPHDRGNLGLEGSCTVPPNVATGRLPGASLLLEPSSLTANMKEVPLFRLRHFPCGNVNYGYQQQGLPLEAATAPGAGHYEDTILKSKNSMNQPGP

[11] = biological target: Fibroblast growth factor receptor 3 (Homo sapiens, UniProt P22607); experiment: FGFR3(FGF3LGF1) Takeda global kinase panel
[12] = biological target: Alpha-2A adrenergic receptor (Homo sapiens) (UniProt P08913); conditions: Compound concentration 10.0 uM
[13] = biological target: Serine/threonine-protein kinase MARK2 (Homo sapiens, UniProt Q7KZI7); experiment: MARK2(MAR2LGY1) Takeda global kinase panel
[14] = biological target: Mitogen-activated protein kinase kinase kinase 9 (Homo sapiens, UniProt P80192); experiment: MLK1(M3K9LGF1) Takeda global kinase panel
[15] = biological target: Histamine H1 receptor (Homo sapiens) (UniProt P35367); conditions: Compound concentration 10.0 uM; remark: listed apart in the source
[16] = biological target: Cyclin-dependent kinase 6 (Homo sapiens, UniProt Q00534); experiment: CDK6(CDK6CGS1) Takeda global kinase panel
[17] = biological target: L-type calcium channel, benzothiazepine site (Cav1.2 alpha-1C) (Homo sapiens, UniProt Q13936); experiment: Inhibition of Calcium Channel L-Type, Benzothiazepine at 10 µM in the Eurofins-Panlabs radioligand binding assay (Eurofins_assay_214510); set-up: ligand concentration 2 nM, non-specific ligand with concentration 10 µM Diltiazem, incubation time 3h, incubation temperature 4 °C; conditions: male, Wistar, rat, rat whole brain preparation, probe [3H] Diltiazem; compound concentration 10 uM; target entry is the homologue from another species
[18] = biological target: STE20-like serine/threonine-protein kinase (Homo sapiens, UniProt Q9H2G2); experiment: SLK(SLK1LGRJ) Takeda global kinase panel
Chain of STE20-like serine/threonine-protein kinase (Q9H2G2 whole entry): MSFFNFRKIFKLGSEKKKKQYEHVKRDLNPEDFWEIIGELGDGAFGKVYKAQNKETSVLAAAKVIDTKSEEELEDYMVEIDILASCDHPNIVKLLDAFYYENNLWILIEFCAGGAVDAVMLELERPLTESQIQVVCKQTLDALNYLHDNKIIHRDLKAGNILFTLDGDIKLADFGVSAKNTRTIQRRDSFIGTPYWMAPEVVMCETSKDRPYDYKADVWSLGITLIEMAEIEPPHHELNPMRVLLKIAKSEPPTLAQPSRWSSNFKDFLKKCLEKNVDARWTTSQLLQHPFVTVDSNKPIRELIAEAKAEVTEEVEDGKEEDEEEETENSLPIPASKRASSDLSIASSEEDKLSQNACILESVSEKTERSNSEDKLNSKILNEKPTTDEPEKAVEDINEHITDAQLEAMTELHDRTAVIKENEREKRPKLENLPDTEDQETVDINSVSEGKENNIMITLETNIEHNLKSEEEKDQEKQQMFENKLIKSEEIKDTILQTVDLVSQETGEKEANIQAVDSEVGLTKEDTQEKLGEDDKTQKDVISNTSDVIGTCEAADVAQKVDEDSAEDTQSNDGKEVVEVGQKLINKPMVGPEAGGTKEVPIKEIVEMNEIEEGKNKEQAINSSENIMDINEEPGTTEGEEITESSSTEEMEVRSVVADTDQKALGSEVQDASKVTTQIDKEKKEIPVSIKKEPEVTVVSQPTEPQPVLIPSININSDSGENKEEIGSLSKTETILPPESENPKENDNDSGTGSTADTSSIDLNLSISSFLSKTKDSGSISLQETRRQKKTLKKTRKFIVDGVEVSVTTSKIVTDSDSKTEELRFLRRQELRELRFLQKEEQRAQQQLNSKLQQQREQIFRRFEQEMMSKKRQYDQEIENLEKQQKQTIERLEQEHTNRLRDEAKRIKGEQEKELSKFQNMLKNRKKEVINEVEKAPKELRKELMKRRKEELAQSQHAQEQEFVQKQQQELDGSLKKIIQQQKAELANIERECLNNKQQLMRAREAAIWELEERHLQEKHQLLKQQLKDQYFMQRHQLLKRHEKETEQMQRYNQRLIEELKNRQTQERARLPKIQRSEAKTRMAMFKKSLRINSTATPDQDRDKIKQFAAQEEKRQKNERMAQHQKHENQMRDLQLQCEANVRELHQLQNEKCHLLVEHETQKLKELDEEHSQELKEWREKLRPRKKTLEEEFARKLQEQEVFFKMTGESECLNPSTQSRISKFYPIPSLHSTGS

Myotonin-protein kinase = Myotonin-protein kinase (Homo sapiens, UniProt Q09013); experiment: DMPK(DMPKLGF1) Takeda global kinase panel
[19] = biological target: Mitogen-activated protein kinase 10 (Homo sapiens, UniProt P53779); experiment: JNK3(MP10LGF2) Takeda global kinase panel
[20] = biological target: Vascular endothelial growth factor receptor 3 (Homo sapiens, UniProt P35916); experiment: FLT4(FLT4LGY1) Takeda global kinase panel
[21] = biological target: Serine/threonine-protein kinase PINK1, mitochondrial (Homo sapiens, UniProt Q9BXM7); experiment: PINK1(PIN1PHRE) Takeda global kinase panel
[22] = biological target: GABA-A receptor; anion channel (Rattus norvegicus) (UniProt O09028+P15431+P18506+P18508+P19969+P20236+P23574+P23576+P28471+P28473+P30191+P62813+P63079+P63138+Q91ZM7+Q9ES14); experiment: Inhibition of GABAA, Muscimol, Central at 10 µM in the Eurofins-Panlabs radioligand binding assay (Eurofins_assay_226500); assay type: protein-complex assay; conditions: Compound concentration 10.0 uM
[23] = biological target: Muscle, skeletal receptor tyrosine-protein kinase (Homo sapiens, UniProt O15146); experiment: MUSK(MUSKLGY1) Takeda global kinase panel
[24] = biological target: Hormonally up-regulated neu tumor-associated kinase (Homo sapiens, UniProt P57058); experiment: HUNK(HUNKLGRN) Takeda global kinase panel
[25] = biological target: Interleukin-1 receptor-associated kinase 4 (Homo sapiens, UniProt Q9NWZ3); experiment: IRAK4(IRK4LGF1) Takeda global kinase panel
Chain of Interleukin-1 receptor-associated kinase 4 (Q9NWZ3 whole entry): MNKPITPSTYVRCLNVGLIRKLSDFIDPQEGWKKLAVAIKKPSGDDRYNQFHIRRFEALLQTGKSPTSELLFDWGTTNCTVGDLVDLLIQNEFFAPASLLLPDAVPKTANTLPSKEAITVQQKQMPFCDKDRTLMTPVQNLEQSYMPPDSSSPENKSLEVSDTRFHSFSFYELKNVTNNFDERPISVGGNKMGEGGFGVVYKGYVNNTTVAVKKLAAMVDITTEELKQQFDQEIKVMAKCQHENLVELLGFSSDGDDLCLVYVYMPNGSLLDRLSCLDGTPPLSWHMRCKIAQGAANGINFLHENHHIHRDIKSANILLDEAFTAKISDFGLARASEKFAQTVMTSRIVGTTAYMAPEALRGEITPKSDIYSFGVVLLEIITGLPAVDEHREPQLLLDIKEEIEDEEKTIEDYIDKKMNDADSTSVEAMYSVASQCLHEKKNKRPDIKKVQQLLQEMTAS

[26] = biological target: Mitogen-activated protein kinase 6 (Homo sapiens, UniProt Q16659); experiment: ERK3(MAP6LHY1) Takeda global kinase panel
SRSF protein kinase 1 = SRSF protein kinase 1 (Homo sapiens, UniProt Q96SB4); experiment: SRPK1(SRP1IHRL) Takeda global kinase panel
[27] = biological target: Platelet-derived growth factor receptor beta (Homo sapiens, UniProt P09619); experiment: PDGFRbeta(PDGBIHC1) Takeda global kinase panel
[28] = biological target: Bone morphogenetic protein receptor type-2 (Homo sapiens, UniProt Q13873); experiment: BMPR2(BMR2LGN1) Takeda global kinase panel
[29] = biological target: Voltage-dependent N-type calcium channel subunit alpha-1B (Homo sapiens) (UniProt Q00975); experiment: Inhibition of Calcium Channel N-Type at 10 µM in the Eurofins-Panlabs radioligand binding assay (Eurofins_assay_216000); conditions: Rattus norvegicus; Compound concentration 10.0 uM
[30] = biological target: Cyclin-dependent kinase 8 (Homo sapiens, UniProt P49336); experiment: CDK8(CDK8CGS1) Takeda global kinase panel
[31] = biological target: Phosphatidylinositol 4,5-bisphosphate 3-kinase catalytic subunit beta isoform (Homo sapiens, UniProt P42338); experiment: PIK3CB(PI3BCGRK) Takeda global kinase panel
[32] = biological target: Mitogen-activated protein kinase kinase kinase kinase 1 (Homo sapiens, UniProt Q92918); experiment: HPK1(M4K1LGY1) Takeda global kinase panel
[33] = biological target: Microtubule-associated serine/threonine-protein kinase 1 (Homo sapiens, UniProt Q9Y2H9); experiment: MAST1(MAS1LGE5) Takeda global kinase panel
[34] = biological target: Cyclin-dependent kinase 11A (Homo sapiens, UniProt Q9UQ88); experiment: CDK11A(C11ALGS1) Takeda global kinase panel
[35] = biological target: Serine/threonine-protein kinase greatwall (Homo sapiens, UniProt Q96GX5); experiment: MASTL(MASLLGE1) Takeda global kinase panel
[36] = biological target: Eukaryotic translation initiation factor 2-alpha kinase 1 (Homo sapiens, UniProt Q9BQI3); experiment: HRI(EIK1CGQ1) Takeda global kinase panel
[37] = biological target: Serine/threonine-protein kinase MRCK alpha (Homo sapiens, UniProt Q5VT25); experiment: MRCKalpha(CD4ALGY1) Takeda global kinase panel
[38] = biological target: Casein kinase I isoform delta (Homo sapiens, UniProt P48730); experiment: CK1delta(CS1DLGI1) Takeda global kinase panel

CN1C(=O)[C@@H](N2CCc3c(nn(Cc4ccccc4)c3Br)C2=O)COc2ccccc21 [TP-030-2]
1 µM: IC50 [2] | IC50 [3] | IC50 [4] | IC50 [5] | IC50 (Aurora kinase A) | IC50 (TGF-beta receptor type-1) | IC50 [8] | IC50 [9] | IC50 [10] | IC50 [11] | IC50 [13] | IC50 [14] | IC50 [16] | IC50 [18] | IC50 (Myotonin-protein kinase) | IC50 [19] | IC50 [20] | IC50 [21] | IC50 [23] | IC50 [24] | IC50 [25] | IC50 [26] | IC50 (SRSF protein kinase 1) | IC50 [27] | IC50 [28] | IC50 [30] | IC50 [31] | IC50 [32] | IC50 [33] | IC50 [34] | IC50 [35] | IC50 [36] | IC50 [37] | IC50 [38]
inactive: inhibition [1] 10% | inhibition [6] 9% | inhibition [7] 11.2% | inhibition [12] 43% | inhibition [15] 9.99% | inhibition [22] 7% | inhibition [29] -1%
16% (not active): inhibition at 3 h, 10 µM [17]
